Measured values: patent US12372525B2 (priority 2013, dated 2025)

What was measured:
[1] = biological target: purified influenza H3N2 neuraminidase (Influenza A virus, UniProt O91745); type: biochemical
A/Perth/211/2001 WT = type: biochemical
seasonal flu = settings: in vivo; cited from earlier work

Chain of purified influenza H3N2 neuraminidase (O91745 whole entry, looked up): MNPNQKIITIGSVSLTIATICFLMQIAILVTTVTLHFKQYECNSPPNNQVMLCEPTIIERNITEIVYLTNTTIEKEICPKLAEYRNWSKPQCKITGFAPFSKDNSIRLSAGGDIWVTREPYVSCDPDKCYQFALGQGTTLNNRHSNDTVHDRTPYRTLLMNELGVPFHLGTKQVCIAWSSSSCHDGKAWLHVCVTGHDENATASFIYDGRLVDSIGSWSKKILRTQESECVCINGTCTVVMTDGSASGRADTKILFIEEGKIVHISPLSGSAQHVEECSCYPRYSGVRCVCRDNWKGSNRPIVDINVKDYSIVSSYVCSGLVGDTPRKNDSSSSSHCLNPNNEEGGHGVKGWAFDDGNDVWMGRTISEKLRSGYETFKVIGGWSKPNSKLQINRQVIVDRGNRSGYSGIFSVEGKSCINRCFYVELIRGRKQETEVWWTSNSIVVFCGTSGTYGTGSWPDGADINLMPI

Row | SMILES | level of detection (LOD) of neuraminidase with this substrate [1] | Inhibition value (A/Perth/211/2001 WT) | effective in prophylaxis against seasonal flu (seasonal flu) [%]
1 | CC(=O)NC1C(O)CC(Oc2ccc(CCC(=O)C(F)(F)F)cc2)(C(=O)[O-])OC1C(O)C(O)CO.[Na+] (stereo not shown) [NANA-CF3] | about 10 pM | – | –
2 | CCOC(=O)C1=C[C@@H](OC(CC)CC)[C@H](NC(C)=O)[C@@H](N)C1 [Oseltamivir] | – | 1.48/1.34 | 80
3 | CC(=O)N[C@H]1[C@H]([C@H](O)[C@H](O)CO)OC(C(=O)O)=C[C@@H]1N=C(N)N [Zanamivir] | – | – | 80
